# In patent publication US8653071B2, “α4β2 neuronal nicotinic acetylcholine receptor ligands” (Suven Life Sciences Limited, priority 2009, dated 2014):
# Structures can show the parent of a compound that is named as a salt. Where two headings read alike, the source gives them in different places.
# Assays:
# [1] = biological target: Nicotinic Acetylcholine α4β2 Receptor (UniProt P09483+P12390); assay: Binding assay for human or rat nicotinic acetylcholine α4β2 receptor ([3H]Cytisine displacement); conditions: [3H]Cytisine 2.5 nM, rat brain frontal cortex or recombinant human receptor in CHO cells (not specified which)
# Description: Binding Assay for Human or Rat Nicotinic Acetylcholine α4β2 Receptor
# • Receptor source: Rat brain frontal cortex or recombinant human cDNA expressed in CHO cells • Radioligand: [^3H]Cytisine 15-40 Ci/mmole • Final ligand concentration—[2.5 nM] • Non-specific determinant: Epibatidine—[0.1 μM] • Reference compound: Epibatidine • Positive control: Epibatidine Incubation Conditions:
# Increasing concentrations of test compounds or standard were incubated with membrane receptors and radioligand in 120 mM NaCl, 2.5 mM KCl, 1 mM CaCl2, 1 mM MgCl2 and 50 mM TRIS-HCl (pH 7.4) for 60 minutes at room temperature. The reaction was terminated by rapid vacuum filtration onto the glass fiber filters. Radioactivity trapped onto the filters was determined and compared to the control values in order to ascertain any interactions of the test compound(s) with either cloned human or rat receptor binding site.
# Literature Reference: Bunnelle W. H., Daanen J. F., Ryther K. B., Schrimpf M. R., Dart M. J., Gelain A., Meyer M. D., Frost J. M., Anderson D. J., Buckley M., Curzon P., Cao Y-J., Puttfarcken P., Searle X., Ji J., Putman C. B., Surowy C., Toma L. and Barlocco D. Structure-Activity Studies and Analgesic Efficacy of N-(3-Pyridinyl)-Bridged Bicyclic Diamines, Exceptionally Potent Agonists at Nicotinic Acetylcholine Receptors. J. Med. Chem. 2007, 50, […].
# [2] = biological target: T1, recombinant human α4β2 nicotinic acetylcholine receptor (Homo sapiens, UniProt P17787+P43681); assay: Determination of IC50 and Kb values, aequorin luminescence (intracellular calcium) assay in CHO cells; type: cell-based; conditions: antagonist mode vs epibatidine
# T1 construct: expressed in transfected cells
# Description: Determination of IC50 and Kb Values for Nicotinic Acetylcholine α4β2 Receptor Ligands
# A stable CHO cell line expressing recombinant human α4β2 nicotinic acetylcholine receptor transiently expressing aequorin protein was used for cell-based assay. The assay offers a non-radioactive based approach to determine binding of a compound to ligand gated ion channels. In this specific assay, the level of intracellular calcium, which is modulated by activation or inhibition of the channel is measured. Both the channel and aequorin genes are expressed at high level under the control of powerful CMV promotor.
# The above cells were grown in 96 well clear bottom white plates in Hams F12 medium containing 10% fetal bovine serum (FBS). Prior to the addition of compounds and/or agonist, cells were serum starved for six hours. Coelentarazine (a prosthetic group for aequorin protein) was added in the medium containing 0.1% dialyzed serum and incubated overnight at 27° C. Cells were washed with assay buffer and increasing concentration of the test compound or standard were added to the plate for antagonist mode. A fixed concentration of the agonist (eipbatidine) was injected into the plate and luminescence was measured for 10 seconds. For evaluation of the compound in agonist mode, increasing concentration of the standard or test compound were injected and the luminescence was measured. Luminescence units were plotted against the compound concentrations using Graphpad software. IC50 values of the compounds were defined as the concentration required in reducing the luminescent units by 50%. The Kb values were calculated by feeding the concentration of the agonist used in the assay and its EC50 value in the same software.
# Literature References: Karadsheh M. S., Shah M. S., Tang X., Macdonald R. L. and Stitzel J. A. Functional characterization of mouse α4β2 nicotinic acetylcholine receptors stably expressed in HEK293T cells. J. Neurochem. 2004, 91, 1138-1150.
# [3] = Rodent pharmacokinetic study; type: in vivo; conditions: Wistar, Wister rat/Male
# Description: Rodent Pharmacokinetic Study
# Three to five animals were housed in each cage. Animals were kept fasted over night and maintained on a 12 hours light/dark cycle. Three rats were dosed NCE orally (15 or 5 mg/kg) and intravenously (5 mg/kg) on day 0 and day 2
# At each time point blood was collected by jugular vein. Plasma was stored frozen at −20° C. until analysis. The concentrations of the NCE compound in plasma were determined using LC-MS/MS method. Schedule time points: Pre dose 0.25, 0.5, 1, 1.5, 2, 3, 4, 6, 8, 10, 12 and 24 hours after dosing (n=3).
# Pharmacokinetic parameters Cmax, Tmax, AUCt, T1/2 and Bioavailability were calculated by non-compartmental model using software WinNonlin version 5.0.1.
# [4] = Rodent brain penetration study; conditions: male, Wistar, rat, brain homogenate and plasma, po, 5 mg/kg
# Description: Rodent Brain Penetration Study
# (§1) Three animals were housed in each cage. Animals were given water and food ad libitum throughout the experiment, and maintained on a 12 hours light/dark cycle.
# (§2) NCE compound was dissolved in water and administered orally. At Tmax (0.5, 1.0 and 2.0) animals were sacrificed to collect the plasma and brain tissue and were homogenized. Plasma and Brain was stored frozen at −20° C. until analysis. The concentrations of the NCE compound in plasma and Brain were determined using LC-MS/MS method.
# (§3) The NCE compounds were quantified in plasma and brain homogenate by validated LC-MS/MS method using solid phase extraction technique. NCE compounds were quantified in the calibration range of 1-500 ng/mL in plasma and brain homogenate. Study samples were analyzed using calibration samples in the batch and quality control samples spread across the batch. Extents of brain-blood ratio were calculated (Cb/Cp).
# in vivo = conditions: male, Wistar, rat, po, 15 mg/kg
# Description: Rodent Brain Penetration Study
# as §1, §2, §3
# Male Wister rats = assay: Acute food intake study (animal model of hyperphagia); type: in vivo, rat; conditions: oral
# Description: The appetite suppressing properties of compounds of this invention were studied using an animal model of hyperphagia.
# Male Wister rats (200-210 grams) obtained from Raj Biotech, India were used as experimental animals. The experiment consisted of 6 days. The rats were adapted to the 18 hour fasting and 6 hour feeding pattern. The animals were housed in a group of three in the cages provided with the fasting grills and were fasted for 18 hours. After 18 hour fasting the rats were separated and placed individually in a cage. Weighed amount of feed was provided to rats for 6 hour and the feed intake at 1, 2, 4 and 6 hours was recorded. Again the rats were regrouped and fasted for 18 hour. The above procedure was followed for 5 days. The average cumulative food intake by the rats on the last 3 days was calculated. Animals were randomised on the basis of their last three days food intake.
# One group of 8 rats received vehicle (2 mL/Kg) orally and another set of animals received compound of the formula (I) orally. Then the rats were given access to food and the food intake at 1, 2, 4 and 6 hours was recorded. The food intake by the rats treated with test compound was compared with the vehicle treated group by using students‘t’ test.
# [5] = plasma, 5 mg/kg Per-Oral vs 5 mg/kg Intravenous
# T1 sequence (P43681 29-627 limits assumed): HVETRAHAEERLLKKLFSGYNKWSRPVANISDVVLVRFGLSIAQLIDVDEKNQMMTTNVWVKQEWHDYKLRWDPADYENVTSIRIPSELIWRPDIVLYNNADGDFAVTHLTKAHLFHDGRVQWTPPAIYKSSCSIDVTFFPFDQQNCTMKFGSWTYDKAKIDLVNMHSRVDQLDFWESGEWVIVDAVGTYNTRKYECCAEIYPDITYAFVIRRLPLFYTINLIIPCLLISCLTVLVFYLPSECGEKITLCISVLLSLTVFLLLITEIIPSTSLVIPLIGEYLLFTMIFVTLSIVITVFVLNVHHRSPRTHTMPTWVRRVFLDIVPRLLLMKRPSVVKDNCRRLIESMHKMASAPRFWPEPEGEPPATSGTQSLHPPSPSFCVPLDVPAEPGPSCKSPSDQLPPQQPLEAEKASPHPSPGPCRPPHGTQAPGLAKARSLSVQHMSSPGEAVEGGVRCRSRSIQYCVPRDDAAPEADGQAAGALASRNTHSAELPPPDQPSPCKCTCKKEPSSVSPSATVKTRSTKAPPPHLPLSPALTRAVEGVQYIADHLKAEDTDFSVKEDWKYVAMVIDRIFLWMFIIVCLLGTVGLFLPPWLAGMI
# T1 sequence (P17787 26-502): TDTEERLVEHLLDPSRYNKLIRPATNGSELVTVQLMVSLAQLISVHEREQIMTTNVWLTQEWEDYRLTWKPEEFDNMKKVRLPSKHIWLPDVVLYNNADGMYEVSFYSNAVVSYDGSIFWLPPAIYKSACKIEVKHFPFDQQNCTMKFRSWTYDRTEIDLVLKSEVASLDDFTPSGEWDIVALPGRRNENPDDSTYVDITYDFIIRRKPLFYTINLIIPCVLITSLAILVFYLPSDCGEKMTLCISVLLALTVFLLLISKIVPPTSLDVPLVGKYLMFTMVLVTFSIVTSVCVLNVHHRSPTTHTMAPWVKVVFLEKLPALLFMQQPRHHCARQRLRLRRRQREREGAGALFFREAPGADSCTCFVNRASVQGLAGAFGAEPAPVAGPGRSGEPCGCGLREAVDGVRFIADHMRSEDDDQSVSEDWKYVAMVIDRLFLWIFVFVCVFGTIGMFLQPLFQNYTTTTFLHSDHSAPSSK
structure (smiles),measurement,setting,value
"CN(C)CC1CC2CC2N1c1cccnc1 (centres unmarked) [Example 10, N-[2-(Pyridin-3-yl)-2-azabicyclo[3.1.0]hex-3-ylmethyl]dimethylamine]",Ki,[1]; read-out: Ki,77 nM
same,Kb,[2]; read-out: Kb,3.4 nM
"CNCC1CC2CC2N1c1cncnc1.O=C(O)/C=C/C(=O)O (centres unmarked) [Example 21, N-(2-(pyrimidin-5-yl)-2-azabicyclo[3.1.0]hex-3-ylmethyl)methyl amine fumarate]",bioavailability,[3]; [5],101 ± 20%
same,AUC(0-t),"[3]; plasma, 5 mg/kg, Intravenous",2030 ± 525 ng·h/mL
same,Cmax,"[3]; plasma, 5 mg/kg, Intravenous",1570 ± 261 ng/mL
same,Tmax,"[3]; plasma, 5 mg/kg, Intravenous",4.8 min
same,half-life,"[3]; plasma, 5 mg/kg, Intravenous",85.8 ± 10.8 min
same,AUC(0-t),"[3]; plasma, 5 mg/kg, Per-Oral",1970 ± 100 ng·h/mL
same,Cmax,"[3]; plasma, 5 mg/kg, Per-Oral",685 ± 107 ng/mL
same,Tmax,"[3]; plasma, 5 mg/kg, Per-Oral",37.8 ± 15 min
same,half-life,"[3]; plasma, 5 mg/kg, Per-Oral",78 ± 22.2 min
same,Ki,[1]; read-out: Ki,465 nM
same,Kp,[4],1.74 ± 0.27
"CNCC1CC2CC2N1c1ccc(C(F)(F)F)nc1.O=C(O)/C=C/C(=O)O (centres unmarked) [Example 23, N-(2-(2-trifluoromethylpyridin-5-yl)-2-azabicyclo[3.1.0]hex-3-ylmethyl) methyl amine fumarate]",bioavailability,[3]; [5],67 ± 9%
same,AUC(0-t),"[3]; plasma, 5 mg/kg, Intravenous",18000 ± 3300 ng·h/mL
same,Cmax,"[3]; plasma, 5 mg/kg, Intravenous",3640 ± 89 ng/mL
same,Tmax,"[3]; plasma, 5 mg/kg, Intravenous",4.8 min
same,half-life,"[3]; plasma, 5 mg/kg, Intravenous",415 ± 145 min
same,AUC(0-t),"[3]; plasma, 5 mg/kg, Per-Oral",12000 ± 1740 ng·h/mL
same,Cmax,"[3]; plasma, 5 mg/kg, Per-Oral",2310 ± 163 ng/mL
same,Tmax,"[3]; plasma, 5 mg/kg, Per-Oral",19.8 ± 8.4 min
same,half-life,"[3]; plasma, 5 mg/kg, Per-Oral",307 ± 11.4 min
same,Ki,[1]; read-out: Ki,2 nM
same,Kp,[4],1.97 ± 0.08
"Brc1cncc(N2C(CN3CCNCC3)CC3CC32)c1 (centres unmarked) [Example 9, 2-(5-Bromopyridin-3-yl)-3-(piperazin-1-ylmethyl)-2-aza-bicyclo[3.1.0]hexane]",Kb,[2]; Kb,73.1 nM
"CNCC1CC2CC2N1c1cncc(Br)c1 (centres unmarked) [Example 11, N-[2-(5-Bromopyridin-3-yl)-2-azabicyclo[3.1.0]hex-3-ylmethyl]methylamine]",Kp,in vivo,8.75 ± 1.59
same,AUC(0-t),"[3]; in vivo, 5 mg/kg, Intravenous",2540 ± 1300 ng·h/mL
same,Cmax,"[3]; in vivo, 5 mg/kg, Intravenous",1440 ± 330 ng/mL
same,Tmax,"[3]; in vivo, 5 mg/kg, Intravenous",4.8 min
same,half-life,"[3]; in vivo, 5 mg/kg, Intravenous",87 ± 31.8 min
same,bioavailability,"[3]; in vivo, 15 mg/kg Per-Oral vs 5 mg/kg Intravenous",59 ± 31%
same,AUC(0-t),"[3]; in vivo, 15 mg/kg, Per-Oral",3880 ± 846 ng·h/mL
same,Cmax,"[3]; in vivo, 15 mg/kg, Per-Oral",1990 ± 435 ng/mL
same,Tmax,"[3]; in vivo, 15 mg/kg, Per-Oral",18.6 ± 7.8 min
same,half-life,"[3]; in vivo, 15 mg/kg, Per-Oral",115 ± 72 min
same,Ki,[1]; read-out: Ki,46.4 nM
"Brc1cncc(N2C(CN3CCNCC3)CC3CC32)c1 (centres unmarked) [Example 8, 2-(5-Bromopyridin-3-yl)-3-(piperazin-1-ylmethyl)-2-azabicyclo[3.1.0]hexane]",Ki,[1]; read-out: Ki,610 nM
same,Kb,[2]; Kb,4.6 nM
"NCC1CC2CC2N1c1cccnc1 (centres unmarked) [Example 18, [2-(Pyridin-3-yl)-2-azabicyclo[3.1.0]hex-3-yl] methylamine fumarate]",bioavailability,"[3]; in vivo, 5 mg/kg Per-Oral vs 5 mg/kg Intravenous",87 ± 24%
same,AUC(0-t),"[3]; in vivo, 5 mg/kg, Intravenous",1760 ± 228 ng·h/mL
same,Cmax,"[3]; in vivo, 5 mg/kg, Intravenous",701 ± 213 ng/mL
same,Tmax,"[3]; in vivo, 5 mg/kg, Intravenous",22.8 ± 8.4 min
same,half-life,"[3]; in vivo, 5 mg/kg, Intravenous",85.8 ± 6.6 min
same,AUC(0-t),"[3]; in vivo, 5 mg/kg, Per-Oral",1540 ± 165 ng·h/mL
same,Cmax,"[3]; in vivo, 5 mg/kg, Per-Oral",355 ± 53 ng/mL
same,Tmax,"[3]; in vivo, 5 mg/kg, Per-Oral",4.8 min
same,half-life,"[3]; in vivo, 5 mg/kg, Per-Oral",105 ± 24 min
same,Ki,[1],6.4 nM
same,Kp,[4],3.52 ± 0.13
same,Inference,Male Wister rats,Active
same,"% Suppression of food intake compared to vehicle, 1 Hour","Male Wister rats; 1 Hour, 18 hour fasted rats",36.80%
same,"% Suppression of food intake compared to vehicle, 2 Hour","Male Wister rats; 2 Hour, 18 hour fasted rats",33.05%
same,"% Suppression of food intake compared to vehicle, 4 Hour","Male Wister rats; 4 Hour, 18 hour fasted rats",30.02%
same,"% Suppression of food intake compared to vehicle, 6 Hour","Male Wister rats; 6 Hour, 18 hour fasted rats",25.38%
"CN(C)CC1CC2CC2N1c1cncc(Br)c1.Cl (centres unmarked) [Example 1, N-[2-(5-Bromopyridin-3-yl)-2-azabicyclo[3.1.0]hex-3-ylmethyl]-dimethylamine hydrochloride]",AUC(0-t),"[3]; plasma, 5 mg/kg, Intravenous",901 ± 47 ng·h/mL
same,Cmax,"[3]; plasma, 5 mg/kg, Intravenous",1940 ± 260 ng/mL
same,Tmax,"[3]; plasma, 5 mg/kg, Intravenous",8.4 ± 6 min
same,half-life,"[3]; plasma, 5 mg/kg, Intravenous",59.4 ± 15 min
same,bioavailability,"[3]; plasma, 15 mg/kg Per-Oral vs 5 mg/kg Intravenous",10 ± 5%
same,AUC(0-t),"[3]; plasma, 15 mg/kg, Per-Oral",273 ± 160 ng·h/mL
same,Cmax,"[3]; plasma, 15 mg/kg, Per-Oral",219 ± 120 ng/mL
same,Tmax,"[3]; plasma, 15 mg/kg, Per-Oral",15 min
same,half-life,"[3]; plasma, 15 mg/kg, Per-Oral",34.8 ± 7.8 min
same,Ki,[1]; read-out: Ki,23 nM
same,Kb,[2]; read-out: Kb,1.4 nM
